Source: patent US20080132415A1, “Method For Increasing Maize Yields” (priority 2004, published 2008)
Like-named read-outs stand apart in the source and are kept apart here. Marks after values point to notes of the source that are not given here.

Columns and labels:
[1] = test system: Pioneer 33K81 hybrid corn; experiment: Field study of isoxadifen with postemergence corn herbicides (Example 1), hybrid Pioneer 33K81; format: in vivo
Description: Timing of the application of the compounds was at the V6 growth stage (i.e., when there were six visible collars of the corn). Additionally, methylated seed oil (MSO)+28% ureas and ammonium sulfate (UAN) were applied at a concentration of 1% v/v+2.5% v/v.

[2] = test system: Golden Harvest hybrid corn; format: in vivo
Text: The hybrid corn species Golden Harvest was used in the study.
On one or more of the herbicides were used in combination with the insecticide chlorpyrifos—841 g/ha and with or without isoxadifen—37 g/ha.
A CO2 backpack sprayer was used to apply the compounds at 187 L/ha at 247 kPa.

[3] = test system: corn hybrids Pioneer 33K81 and Pioneer 33P66; experiment: Field study of isoxadifen with postemergence corn herbicides (Example 1), both hybrids or hybrid not stated; format: in vivo
[4] = test system: Pioneer 33P66 hybrid corn; conditions: applied at V6 growth stage at 1x field use rates, isoxadifen 37 g/ha where included
Description: The study was conducted in Bloomington, DeKalb and Urbana, Ill. to evaluate the crop response when isoxadifen was used with postemergence corn herbicides. Two hybrid corn species with different levels of tolerance were used in the study: Pioneer 33K81, a species sensitive to plant growth regulators (PGRs), isoxazole, amides and sulfonylureas (SUs); and Pioneer 33P66, a tolerant species. Plots were kept weed-free to eliminate any competition from weeds.
The following herbicides and their respective field use rates were used in the study:
rimsufuron—26 g/ha; nicosulfuron+rimsulfuron—39 g/ha; foramsulfuron—37 g/ha; diflufenzopyr+dicamba—294 g/ha; mesotrione—105 g/ha; and dicamba—560 g/ha. One or more of the herbicides were used with or without isoxadifen—37 g/ha. All herbicides were applied at the 1× labeled field use rates.
Timing of the application of the compounds was at the V6 growth stage (i.e., when there were six visible collars of the corn). Additionally, methylated seed oil (MSO)+28% […] (UAN) were applied at a concentration of 1% v/v+2.5% v/v.

[5] = herbicide in combination with chlorpyrifos 841 g/ha and isoxadifen 37 g/ha, seven days post application
[6] = herbicide in combination with chlorpyrifos 841 g/ha, without isoxadifen, seven days post application
[7] = herbicide in combination with chlorpyrifos, without isoxadifen
[8] = percentage of control, herbicide in combination with chlorpyrifos 841 g/ha and isoxadifen 37 g/ha
[9] = percentage of control, herbicide in combination with chlorpyrifos 841 g/ha, without isoxadifen

SMILES	PERCENTAGE OF CORN INJURY Pioneer 33K81 ([1]; 7 days post application, applied at V6 growth stage at 1x field use rates, isoxadifen 37 g/ha where included) [%]	CORN YIELD - PERCENTAGE OF CONTROL Pioneer 33K81 ([1]; percentage of control, applied at V6 growth stage at 1x field use rates, isoxadifen 37 g/ha where included) [%]	CORN INJURY Chlor + Isoxadifen ([2]; in vivo)	CORN INJURY Chlorpyrifos ([2]; in vivo) [%]	CORN YIELD Chlor + Isoxadifen ([2]; in vivo)	CORN YIELD Chlorpyrifos ([2]; in vivo) [%]	corn injury compared to the application of the same combination and isoxadifen ([2]; in vivo)	corn yield compared to the application of the same combination and isoxadifen ([2]; in vivo)	crop injury when tank-mixed with isoxadifen, compared with the same herbicide without isoxadifen ([3]; both hybrids, 7 days after treatment)	PERCENTAGE OF CORN INJURY Pioneer 33P66 ([4]; 7 days post application) [%]	CORN YIELD - PERCENTAGE OF CONTROL Pioneer 33P66 ([4]; percentage of control) [%]	CORN INJURY Chlor + Isoxadifen [2, 5]	CORN INJURY Chlorpyrifos [2, 6] [%]	corn injury compared to the application of the same combination and isoxadifen [2, 7]	corn yield compared to the application of the same combination and isoxadifen [2, 7]	CORN YIELD Chlor + Isoxadifen [2, 8]	CORN YIELD Chlorpyrifos [2, 9] [%]	difference in adding isoxadifen ([3]; hybrid not stated, data not shown)	crop injury when tank-mixed with isoxadifen ([1]; P33K81 hybrid corn, addition of isoxadifen, data not shown)
COc1c(Cl)ccc(Cl)c1C(=O)O [Dicamba, dicamba]	25	81	37 * %	65	86 * %	75	significantly more corn injury	significantly smaller corn yield	less crop injury	36	89	–	–	–	–	–	–	–	–
COc1cc(OC)nc(NC(=O)NS(=O)(=O)c2cc(NC=O)ccc2C(=O)N(C)C)n1 [Foramsulfuron, foramsulfuron]	–	–	–	–	–	–	–	–	–	–	–	37 * %	47	significantly more corn injury	significantly smaller corn yield	92 * %	82	–	–
CS(=O)(=O)c1ccc(C(=O)C2C(=O)CCCC2=O)c([N+](=O)[O-])c1 [Mesotrione, mesotrione]	–	–	–	–	–	–	–	–	–	–	–	12 * %	34	significantly more corn injury	no significant difference	97%	97	no significant difference	–
CCS(=O)(=O)c1cccnc1S(=O)(=O)NC(=O)Nc1nc(OC)cc(OC)n1 [Rimsulfuron, rimsulfuron]	–	–	–	–	–	–	–	–	–	–	–	45%	37	no significant difference	significantly smaller corn yield	95 * %	65	–	less crop injury
